Source: patent publication US12435072B2, “Compounds” (Vicore Pharma AB, priority 2019, dated 2025)
Read-outs that look alike come from different tables or passages of the source.

How the values were obtained:
[1] = biological target: T1, human recombinant AT2 receptor (Homo sapiens, UniProt P50052); experiment: Binding to AT2 receptor, radiometric scintillation assay (Eurofins); conditions: ligand 125I CGP 42112A, tested at 1, 10, 100 and 1000 nM
T1 construct: purchased Eurofins ITEM26
T1 sequence (P50052 1-363): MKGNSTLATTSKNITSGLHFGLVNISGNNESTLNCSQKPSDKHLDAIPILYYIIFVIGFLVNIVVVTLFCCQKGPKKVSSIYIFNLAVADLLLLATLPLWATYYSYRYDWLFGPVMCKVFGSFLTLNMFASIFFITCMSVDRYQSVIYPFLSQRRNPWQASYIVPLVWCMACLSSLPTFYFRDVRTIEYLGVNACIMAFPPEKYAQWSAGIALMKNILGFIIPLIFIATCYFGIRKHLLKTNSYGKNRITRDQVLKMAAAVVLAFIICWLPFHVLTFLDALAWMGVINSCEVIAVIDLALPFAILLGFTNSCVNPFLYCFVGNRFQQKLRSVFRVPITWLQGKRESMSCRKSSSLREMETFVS
Protocol: (§1) Compounds were evaluated for binding to the human recombinant AT2 and AT1 receptor according to Eurofins protocol ITEM26 and ITEM24 using a radiometric scintillation assay.

CYP2D6 = biological target: T2, CYP2D6 (Homo sapiens, UniProt P10635); experiment: CYP inhibition in human liver microsomes, CYP2D6; assay type: in vitro ADME; conditions: probe dextromethorphan, substrate dextromethorphan, read-out: CYP2D6 Inh %
T2 construct: incubated with human liver microsomes; tissue Eurofins ITEMG232; host or cells: human liver microsomes
T2 sequence (P10635 whole entry): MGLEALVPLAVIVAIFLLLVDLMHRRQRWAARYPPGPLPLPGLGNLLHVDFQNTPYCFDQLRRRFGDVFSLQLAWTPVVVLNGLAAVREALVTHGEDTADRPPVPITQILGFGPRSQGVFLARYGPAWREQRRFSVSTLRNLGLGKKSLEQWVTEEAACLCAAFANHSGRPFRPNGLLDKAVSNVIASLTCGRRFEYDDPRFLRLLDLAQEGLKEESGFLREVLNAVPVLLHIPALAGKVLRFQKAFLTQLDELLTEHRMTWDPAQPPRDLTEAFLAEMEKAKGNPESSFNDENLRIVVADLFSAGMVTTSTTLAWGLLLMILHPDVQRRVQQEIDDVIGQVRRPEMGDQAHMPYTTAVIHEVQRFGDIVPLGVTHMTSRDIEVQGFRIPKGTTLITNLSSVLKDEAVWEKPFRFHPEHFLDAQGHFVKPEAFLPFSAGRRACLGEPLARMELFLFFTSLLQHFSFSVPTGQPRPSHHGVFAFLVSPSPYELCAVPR
Protocol: (§2) The following substrates were used: CYP1A phenacetin, CYP2B6 bupropion, CYP2C8 paclitaxel and amodiaquine, CYP2C9 diclofenac, CYP2C19 omeprazole, CYP2D6 dextromethorphan, CYP3A midazolam and testosterone. At the end of the incubation, the formation of metabolite was monitored by HPLC-MS/MS as the peak area response.

CYP1A = biological target: T3, CYP1A (Homo sapiens, UniProt P05177); experiment: CYP inhibition in human liver microsomes, CYP1A; assay type: in vitro ADME; conditions: probe phenacetin, substrate phenacetin, read-out: CYP1A Inh %
T3 construct: incubated with human liver microsomes; tissue Eurofins ITEMG232; host or cells: human liver microsomes
T3 sequence (P05177 1-516): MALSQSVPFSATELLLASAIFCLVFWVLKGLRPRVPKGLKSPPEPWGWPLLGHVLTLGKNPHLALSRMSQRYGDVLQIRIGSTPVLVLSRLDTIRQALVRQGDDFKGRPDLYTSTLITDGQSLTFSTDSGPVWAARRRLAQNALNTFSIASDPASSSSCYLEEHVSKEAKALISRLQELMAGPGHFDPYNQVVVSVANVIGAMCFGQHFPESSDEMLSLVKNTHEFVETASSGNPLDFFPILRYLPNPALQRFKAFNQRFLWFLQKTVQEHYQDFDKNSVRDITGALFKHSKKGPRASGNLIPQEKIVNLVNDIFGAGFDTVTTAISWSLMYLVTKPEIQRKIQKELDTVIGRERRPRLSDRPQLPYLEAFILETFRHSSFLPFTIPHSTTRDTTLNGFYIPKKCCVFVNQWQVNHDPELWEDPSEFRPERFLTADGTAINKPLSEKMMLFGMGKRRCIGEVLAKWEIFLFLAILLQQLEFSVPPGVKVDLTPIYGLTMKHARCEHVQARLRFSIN
Protocol: as §2

CYP2C19 = biological target: T4, CYP2C19 (Homo sapiens, UniProt P33261); experiment: CYP inhibition in human liver microsomes, CYP2C19; assay type: in vitro ADME; conditions: probe omeprazole, substrate omeprazole, read-out: CYP2C19 Inh %
T4 construct: incubated with human liver microsomes; tissue Eurofins ITEMG232; host or cells: human liver microsomes
T4 sequence (P33261 whole entry): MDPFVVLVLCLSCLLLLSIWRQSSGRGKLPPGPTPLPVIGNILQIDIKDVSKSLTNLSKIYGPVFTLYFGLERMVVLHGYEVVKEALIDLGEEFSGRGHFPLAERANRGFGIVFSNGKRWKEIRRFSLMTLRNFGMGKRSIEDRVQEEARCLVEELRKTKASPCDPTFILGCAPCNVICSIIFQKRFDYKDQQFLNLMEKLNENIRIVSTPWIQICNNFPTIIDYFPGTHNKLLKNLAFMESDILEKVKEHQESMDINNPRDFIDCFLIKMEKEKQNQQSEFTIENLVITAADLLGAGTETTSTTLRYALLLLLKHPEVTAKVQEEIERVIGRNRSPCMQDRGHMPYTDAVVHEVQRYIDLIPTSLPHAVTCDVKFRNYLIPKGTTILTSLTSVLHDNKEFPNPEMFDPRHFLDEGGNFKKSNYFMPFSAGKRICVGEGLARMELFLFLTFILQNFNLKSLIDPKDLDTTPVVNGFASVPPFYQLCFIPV
Protocol: as §2

CYP3A4&5 = experiment: CYP inhibition in human liver microsomes, CYP3A4&5 (testosterone); assay type: in vitro ADME; conditions: probe testosterone, substrate testosterone, read-out: CYP3A4&5 testosterone Inh %
Protocol: as §2

[2] = biological target: T5, human recombinant AT1 receptor (Homo sapiens, UniProt P30556); experiment: Binding to AT1 receptor, radiometric scintillation assay (Eurofins); conditions: ligand 125I(sar1,Ile8)-AT-II, tested at 1 and 10 μM
T5 construct: purchased Eurofins ITEM24
T5 sequence (P30556 1-359): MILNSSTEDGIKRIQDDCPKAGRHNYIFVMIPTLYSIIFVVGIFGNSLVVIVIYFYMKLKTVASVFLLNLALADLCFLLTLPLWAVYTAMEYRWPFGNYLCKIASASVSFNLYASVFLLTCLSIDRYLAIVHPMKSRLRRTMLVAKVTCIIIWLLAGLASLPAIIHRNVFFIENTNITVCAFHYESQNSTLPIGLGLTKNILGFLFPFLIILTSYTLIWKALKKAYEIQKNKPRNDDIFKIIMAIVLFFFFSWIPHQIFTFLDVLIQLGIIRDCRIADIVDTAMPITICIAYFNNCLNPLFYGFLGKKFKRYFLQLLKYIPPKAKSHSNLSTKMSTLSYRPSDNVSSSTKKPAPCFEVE
Protocol: as §1

[3] = Metabolic stability in pooled human liver microsomes; assay type: in vitro ADME; conditions: pooled human liver microsomes 0.5 mg/ml, 1 μM test compound, 37° C.
Protocol: Pooled human liver microsomes in PBS at a concentration of 0.5 mg/ml was incubated with or without 1 mM NADPH for 70 min at 37° C. Test compound was added after 10 minutes to a final concentration of 1 μM. Samples were withdrawn at 0, 5, 15 and 60 minutes and added to test tubes containing acetonitrile, to stop the reaction, and with terfenadine, used as internal standard. After centrifugation at 10 000×g for 5 minutes the supernatant was diluted 1:1 with 1% formic acid. Samples were separated on a reverse phase column and detected by triple quadrupole MSMS (Agilant model 6540). The concentration of the parent compound at the different time points was measured with an external standard curve using terfenadine as internal standard and the initial metabolic rate in the presence or absence of NADPH calculated.

CYP2C9 = CYP2C9 (Homo sapiens, UniProt P11712); experiment: CYP inhibition in human liver microsomes, CYP2C9; assay type: in vitro ADME; design: incubated with human liver microsomes; tissue Eurofins ITEMG232; host or cells: human liver microsomes; conditions: probe diclofenac, substrate diclofenac, read-out: CYP2C9 Inh %
CYP2C9, sequence (P11712 whole entry): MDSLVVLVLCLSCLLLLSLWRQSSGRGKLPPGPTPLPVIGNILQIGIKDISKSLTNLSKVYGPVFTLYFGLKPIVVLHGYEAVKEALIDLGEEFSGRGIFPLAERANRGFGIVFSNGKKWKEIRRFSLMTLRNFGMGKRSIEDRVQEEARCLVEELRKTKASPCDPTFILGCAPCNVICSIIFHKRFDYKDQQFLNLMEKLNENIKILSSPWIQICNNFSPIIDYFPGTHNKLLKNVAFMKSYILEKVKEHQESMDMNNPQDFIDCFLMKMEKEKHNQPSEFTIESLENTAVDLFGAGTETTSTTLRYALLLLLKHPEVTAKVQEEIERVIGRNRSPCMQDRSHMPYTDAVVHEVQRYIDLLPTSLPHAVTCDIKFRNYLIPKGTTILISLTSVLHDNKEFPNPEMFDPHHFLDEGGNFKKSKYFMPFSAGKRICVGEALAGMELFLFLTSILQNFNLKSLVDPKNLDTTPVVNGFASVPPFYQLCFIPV
Protocol: as §2

[4] = with 1 mM NADPH, read-out: T1/2, + NaDPH
[5] = without NADPH, read-out: T1/2, no NaDPH

Structure (SMILES)	IC50 [1] [nM]	inhibition at 10 µM (CYP2D6) [%]	inhibition at 10 µM (CYP1A) [%]	inhibition at 10 µM (CYP2C19) [%]	inhibition at 10 µM (CYP3A4&5) [%]	IC50 [2] [nM]	half-life at 1 μM [3, 4] [min]	half-life at 1 μM [3, 5] [min]	inhibition at 10 µM (CYP2C9) [%]
Cc1nccn1Cc1ccc(-c2cc(CC(C)C)sc2S(=O)(=O)NC(=O)NCc2ccccn2)cc1F [Example 13, 3-(3-{3-Fluoro-4-[(2-methyl-1H-imidazol-1-yl)methyl]phenyl}-5-isobutyl-2-thienylsulfonyl)-1-[(2-pyridyl)methyl]urea]	0.53	12	16	40	9	26000	> 60	> 60	32
Cc1nccn1Cc1ccc(-c2cc(CC(C)C)sc2S(=O)(=O)NC(=O)NCc2ccccn2)cc1 [Example 2, 3-(5-isobutyl-3-{p-[(2-Methyl-1H-imidazol-1-yl)methyl]phenyl}-2-thienylsulfonyl)-1-[(2-pyridyl)methyl]urea]	5.5	8.6	5	35.4	0.3	> 10000	> 60	> 60	30.4
Cc1nccn1Cc1ccc(-c2cc(CC(C)C)sc2S(=O)(=O)NC(=O)NCc2ccccc2)cc1 [Example 1, 1-benzyl-3-[[5-isobutyl-3-[4-[(2-methylimidazol-1-yl)methyl]phenyl]-2-thienyl]sulfonyl]urea]	4	14.3	7.3	59.1	21.4	> 1000	24	> 60	49.7
Cc1nccn1Cc1ccc(-c2cc(CC(C)C)sc2S(=O)(=O)NC(=O)NCCCC(F)(F)F)cc1 [Example 5, 3-(5-isobutyl-3-{p-[(2-Methyl-1H-imidazol-1-yl)methyl]phenyl}-2-thienylsulfonyl)-1-(4,4,4-trifluorobutyl)-urea]	14.8	13.2	7.3	50.4	14.7	> 10000	25	> 60	27.9
CCCCNC(=O)NS(=O)(=O)c1sc(CC(C)C)cc1-c1ccc(Cn2ccnc2C)cc1 [Example 4, 1-Butyl-3-(5-isobutyl-3-{p-[(2-methyl-1H-imidazol-1-yl)methyl]phenyl}-2-thienylsulfonyl)-urea]	10.5	7.7	10.5	37.5	8.2	> 10000	39	> 60	31.3

Continued, values first:

IC50 [1] [nM]	inhibition at 10 µM (CYP2D6) [%]	inhibition at 10 µM (CYP1A) [%]	inhibition at 10 µM (CYP2C19) [%]	inhibition at 10 µM (CYP3A4&5) [%]	IC50 [2] [nM]	half-life at 1 μM [3, 4] [min]	half-life at 1 μM [3, 5] [min]	inhibition at 10 µM (CYP2C9) [%]	Structure (SMILES)
4.9	12	5	53	10	4000	43	> 60	58	CC(C)Cc1cc(-c2ccc(Cn3ccnc3C(C)C)c(F)c2)c(S(=O)(=O)NC(=O)NCCC(F)(F)F)s1.O=C(O)C(F)(F)F [Example 41, 1-{[3-(3-fluoro-4-{[2-(propan-2-yl)-1H-imidazol-1-yl]methyl}phenyl)-5-(2-methylpropyl)thiophen-2-yl]sulfonyl}-3-(3,3,3-trifluoropropyl)urea trifluoroacetic acid]
0.63	45	20	60	25	8000	45	> 60	71	Cc1nccn1Cc1ccc(-c2cc(CC(C)C)sc2S(=O)(=O)NC(=O)NCc2cccs2)cc1F.O=C(O)C(F)(F)F [Example 35, 1-[(3-{3-fluoro-4-[(2-methyl-1H-imidazol-1-yl)methyl]phenyl}-5-(2-methylpropyl)thiophen-2-yl)sulfonyl]-3-[(thiophen-2-yl)methyl]urea trifluoroacetic acid]
5.2	40	-6	80	60	21000	6	> 60	75	Cc1nccn1Cc1ccc(-c2cc(CC(C)C)sc2S(=O)(=O)NC(=O)NCc2ccc(F)c(F)c2)cc1F.O=C(O)C(F)(F)F [Example 34, 1-[(3,4-difluorophenyl)methyl]-3-[(3-{3-fluoro-4-[(2-methyl-1H-imidazol-1-yl)methyl]phenyl}-5-(2-methylpropyl)thiophen-2-yl)sulfonyl]urea trifluoroacetic acid]
7.7	47	-1	80	63	17000	4	> 60	70	Cc1nccn1Cc1ccc(-c2cc(CC(C)C)sc2S(=O)(=O)NC(=O)NCC2CCC(F)(F)CC2)cc1F.O=C(O)C(F)(F)F [Example 40, 1-[(4,4-difluorocyclohexyl)methyl]-3-[(3-{3-fluoro-4-[(2-methyl-1H-imidazol-1-yl)methyl]phenyl}-5-(2-methylpropyl)thiophen-2-yl)sulfonyl]urea trifluoroacetic acid]
4.9	53	20	73	12	463000	> 60	> 60	30	Cc1nccn1Cc1ccc(-c2cc(CC(C)C)sc2S(=O)(=O)NC(=O)NCc2nccn2C)cc1F [Example 15, 1-(3-{3-Fluoro-4-[(2-methyl-1H-imidazol-1-yl)methyl]phenyl}-5-isobutyl-2-thienylsulfonyl)-3-[(1-methyl-1H-imidazol-2-yl)methyl]urea]
